Molecules are shown by their SMILES.

Compound `*C1CCC(CC2CCC(N3C(=O)c4ccc(Oc5ccc6c(c5)C(=O)N(*)C6=O)cc4C3=O)CC2)CC1` (repeat unit) registered a glass transition temperature of 240.00 °C.

The compound `*CC1CC2CC1C1CCC(CN3C(=O)c4ccc(Oc5ccc6c(c5)C(=O)N(*)C6=O)cc4C3=O)C21` (repeat unit) returned a glass transition temperature of 201.00 °C.

`*CCCCCCCCCCCCN1C(=O)c2ccc(Oc3ccc4c(c3)C(=O)N(*)C4=O)cc2C1=O` (repeat unit): the glass transition temperature came out at 70.00 °C.

Compound `*CCCCCCCCCCCN1C(=O)c2ccc(Oc3ccc4c(c3)C(=O)N(*)C4=O)cc2C1=O` (repeat unit) showed a glass transition temperature of 74.00 °C.

For the compound `*CCCCCCCCCN1C(=O)c2ccc(Oc3ccc4c(c3)C(=O)N(*)C4=O)cc2C1=O` (repeat unit), the glass transition temperature was 89.00 °C.

For `*CCCCCCCCN1C(=O)c2ccc(C(=O)c3ccc4c(c3)C(=O)N(*)C4=O)cc2C1=O` (repeat unit), the glass transition temperature is 113.00 °C.

Turning to `*CCCCCCN1C(=O)c2ccc(C(=O)c3ccc4c(c3)C(=O)N(*)C4=O)cc2C1=O` (repeat unit), the glass transition temperature came to 127.00 °C.

Compound `*c1cc(N2C(=O)c3ccc(Oc4ccc5c(c4)C(=O)N(*)C5=O)cc3C2=O)c(O)cc1O` (repeat unit) came in with a glass transition temperature of 263.00 °C.

The compound `*c1ccc(-c2ccc(N3C(=O)c4ccc(Oc5ccc6c(c5)C(=O)N(*)C6=O)cc4C3=O)c(OCCCCCCOc3ccc(/C=C/c4ccc(F)cc4)cc3)c2)cc1OCCCCCCOc1ccc(/C=C/c2ccc(F)cc2)cc1` (repeat unit) returned a glass transition temperature of 124.00 °C.

Regarding `*c1ccc(-c2ccc(N3C(=O)c4ccc(Oc5ccc6c(c5)C(=O)N(*)C6=O)cc4C3=O)cc2C(F)(F)F)c(C(F)(F)F)c1` (repeat unit), the glass transition temperature is 275.00 °C.

As to `*c1ccc(C2(c3ccc(N4C(=O)c5ccc(Oc6ccc7c(c6)C(=O)N(*)C7=O)cc5C4=O)cc3)c3ccccc3-c3ccccc32)cc1` (repeat unit), the glass transition temperature stood at 373.00 °C.

`*c1ccc(OCCOCCOc2cccc(N3C(=O)c4ccc(Oc5ccc6c(c5)C(=O)N(*)C6=O)cc4C3=O)c2)cc1` (repeat unit) gave a glass transition temperature of 146.50 °C.

On to `*c1ccc(Oc2ccc(-c3ccc(Oc4ccc(N5C(=O)c6ccc(Oc7cc(C(C)(C)C)c(Oc8ccc9c(c8)C(=O)N(*)C9=O)cc7C(C)(C)C)cc6C5=O)cc4)cc3)cc2)cc1` (repeat unit), for which the glass transition temperature is 262.00 °C.

As for `*c1ccc(Oc2ccc(-c3ccc(Oc4ccc(N5C(=O)c6ccc(Oc7ccc8c(c7)C(=O)N(*)C8=O)cc6C5=O)cc4)cc3)cc2)cc1` (repeat unit), the glass transition temperature came out at 245.00 °C.

Take `*c1ccc(Oc2ccc(C(c3ccc(Oc4ccc(N5C(=O)c6ccc(Oc7ccc8c(c7)C(=O)N(*)C8=O)cc6C5=O)cc4)cc3)(C(F)(F)F)C(F)(F)F)cc2)cc1` (repeat unit): the glass transition temperature worked out at 264.00 °C.

`*c1ccc(Oc2ccc(N3C(=O)c4ccc(Oc5c(Oc6ccc7c(c6)C(=O)N(*)C7=O)cc(C(C)(C)C)cc5C(C)(C)C)cc4C3=O)cc2)cc1` (repeat unit) came in with a glass transition temperature of 228.00 °C.

In the case of `*c1ccc(Oc2ccc(N3C(=O)c4ccc(Oc5ccc6c(c5)C(=O)N(*)C6=O)cc4C3=O)cc2Br)c(Br)c1` (repeat unit), the glass transition temperature is 251.00 °C.

`*c1ccc(Sc2ccc(Sc3ccc(N4C(=O)c5ccc(Oc6ccc7c(c6)C(=O)N(*)C7=O)cc5C4=O)cc3)s2)cc1` (repeat unit): the glass transition temperature was 218.00 °C.

Turning to `*c1ccc(Sc2ccc(Sc3ccc(Sc4ccc(Sc5ccc(N6C(=O)c7ccc(Oc8ccc9c(c8)C(=O)N(*)C9=O)cc7C6=O)cc5)s4)s3)s2)cc1` (repeat unit), the glass transition temperature turned out to be 158.50 °C.

In turn, `*c1cccc(C(O)c2cccc(N3C(=O)c4ccc(Oc5ccc6c(c5)C(=O)N(*)C6=O)cc4C3=O)c2)c1` (repeat unit) displayed a glass transition temperature of 252.00 °C.
